Activity calls are given as the source filed them. No cut-off for these calls is given here.
Columns and labels:
Assay type in all cases: functional, organism-based
[1] = system: Phalaris canariensis; assay: Stimulation of radicle growth in Phalaris canariensis at 50 ug/ml
[2] = system: Phalaris canariensis; assay: Phytotoxicity against Phalaris canariensis assessed as inhibition of radicle growth at 50 ug/ml
[3] = system: Lactuca sativa; assay: Phytotoxicity against Lactuca sativa assessed as inhibition of emergence rate index at 50 ug/ml
[4] = system: Lactuca sativa; assay: Phytotoxicity against Lactuca sativa assessed as inhibition of germination at 50 ug/ml
[5] = system: Lactuca sativa; assay: Phytotoxicity against Lactuca sativa assessed as inhibition of radicle growth at 50 ug/ml

CC1=C(C)C(=O)O[C@]2(C1)O[C@@]1(O)C[C@H]3[C@@H](C[C@@H](O)C4=CC=CC(=O)[C@@]43C)[C@@H]3CC[C@@](O)([C@@H]2C)[C@]31C
Activity [1]: Active

CC1=C(C)C(=O)O[C@]2(C1)O[C@@]1(O)C[C@H]3[C@@H](C[C@@H](O)[C@@]4(Cl)CC=CC(=O)[C@]34C)[C@@H]3CC[C@@](O)([C@@H]2C)[C@]31C
Activity [2]: Active

CC1=C(C)[C@H]2C(=O)[C@@H](C)[C@]3(O)CC[C@H]4[C@@H]5C[C@@H](O)[C@@]6(O)CC=CC(=O)[C@]6(C)[C@H]5C[C@@]2(OC1=O)[C@@]43C
Activity [1]: Active

CC1=C(C)C(=O)O[C@]2(C1)O[C@@]1(O)C[C@H]3[C@@H](C[C@H](Cl)[C@]4(O)CC=CC(=O)[C@]34C)[C@@H]3CC[C@@](O)([C@@H]2C)[C@]31C
Activity [3]: Active | Activity [4]: Active | Activity [5]: Active

Source: ChEMBL document CHEMBL1157944, “Phytotoxic withanolides from Jaborosa rotacea” (J Nat Prod, 2006)
